Measurements: ChEMBL document CHEMBL1138296, “Synthesis and biological evaluation of alpha-halogenated bisphosphonate and phosphonocarboxylate analogues of risedronate” (J Med Chem, 2007)
Activity calls are given as the source filed them. No cut-off for these calls is given here.

Key:
[1] = biological target: T1, Farnesyl pyrophosphate synthase (Homo sapiens, UniProt P14324); assay: Inhibition of human cloned FPPS expressed in Escherichia col […]
T1 sequence (P14324 whole entry): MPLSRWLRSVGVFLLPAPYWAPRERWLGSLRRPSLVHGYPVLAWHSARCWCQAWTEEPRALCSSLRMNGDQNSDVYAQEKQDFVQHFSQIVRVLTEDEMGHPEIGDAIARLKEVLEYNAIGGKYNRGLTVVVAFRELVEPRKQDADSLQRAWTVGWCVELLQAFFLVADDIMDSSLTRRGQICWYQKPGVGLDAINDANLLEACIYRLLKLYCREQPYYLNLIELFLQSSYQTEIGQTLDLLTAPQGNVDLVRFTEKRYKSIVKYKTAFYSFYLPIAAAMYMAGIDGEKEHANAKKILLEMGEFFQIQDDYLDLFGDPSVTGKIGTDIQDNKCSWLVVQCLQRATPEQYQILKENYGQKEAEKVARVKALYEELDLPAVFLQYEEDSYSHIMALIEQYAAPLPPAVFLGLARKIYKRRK

J744 [2] = assay: Inhibition of RGGT mediated Rap1A prenylation in […] cells; format: cell-based; conditions: Mus musculus
[3] = Bone mineral affinity on hydroxyaptite assessed as retention time by chromatography; format: functional
[4] = Reduction of viability of mouse […] cells after 48 hrs; format: cell-based
J744 [5] = assay: Inhibition of RGGT mediated Rab11 prenylation in […] cells; format: cell-based; conditions: Mus musculus
[6] = Inhibition of RGGT; design: species or system Homo sapiens

For `O=P(O)(O)C(Br)(Cc1cccnc1)P(=O)(O)O`, the IC50 [1] was 0.34 µM, the MED (J744 [2]) was 400 µM and the TIME [3] was 0.0955 h. For the same compound, the IC50 [4] was 673 µM.
For `O=C(O)C(F)(Cc1cccnc1)P(=O)(O)O` (stereo not drawn), the IC50 [1] was over 600 µM, the Activity [3] was “inactive” and the MED (J744 [5]) was 31 µM. It also gave an IC50 [6] of 16.3 µM and an IC50 [4] of 1.8 µM.
`O=P(O)(O)C(Cc1cccnc1)P(=O)(O)O` gave an IC50 [1] of 0.0342 µM, an MED (J744 [2]) of 50 µM and a TIME [3] of 0.0972 h. The IC50 [4] was 212 µM.
In the case of `O=P(O)(O)C(O)(Cc1cccnc1)P(=O)(O)O` [RISEDRONIC ACID], the MED (J744 [2]) is reported as 12 µM, the TIME [3] is reported as 0.166 h and the IC50 [4] is reported as 31 µM.
In the case of `O=C(O)C(Cl)(Cc1cccnc1)P(=O)(O)O` (stereo not drawn), the IC50 [1] is reported as over 600 µM, the Activity [3] is reported as “inactive” and the MED (J744 [5]) is reported as 125 µM. It also gave an IC50 [6] of 16.4 µM and an IC50 [4] of 5 µM.
`O=P(O)(O)C(F)(Cc1cccnc1)P(=O)(O)O` gave an IC50 [1] of 0.0164 µM, an MED (J744 [2]) of 100 µM and a TIME [3] of 0.0988 h. For the same compound, the IC50 [4] was 140 µM.
Work on `O=C(O)[C@@](O)(Cc1cccnc1)P(=O)(O)O` yielded an IC50 [1] of 254 µM, a TIME [3] of 0.0767 h and an MED (J744 [5]) of 62 µM. For the same compound, the IC50 [6] was 24.1 µM and the IC50 [4] was 2.3 µM.
In the case of `O=C(O)C(Cc1cccnc1)P(=O)(O)O` (stereo not drawn), the Activity [3] is reported as “inactive”, the MED (J744 [5]) is reported as 62 µM and the IC50 [6] is reported as 35.3 µM. It also gave an IC50 [4] of 2.6 µM.
`O=P(O)(O)C(Cl)(Cc1cccnc1)P(=O)(O)O` gave an IC50 [1] of 0.0946 µM, an MED (J744 [2]) of 400 µM and a TIME [3] of 0.101 h. For the same compound, the IC50 [4] was 679 µM.
With `O=C(O)C(Br)(Cc1cccnc1)P(=O)(O)O` (stereo not drawn) the IC50 [1] was over 60 µM, the Activity [3] was “inactive” and the MED (J744 [5]) was 125 µM. It also gave an IC50 [6] of 17.7 µM and an IC50 [4] of 5.5 µM.
